Assay [1] deals with Mitogen-activated protein kinase 10 (Homo sapiens, UniProt P53779). In words: Dose response biochemical screening assay for inhibitors of c-Jun N-Terminal Kinase 3 (JNK3). [Related pubchem assays: 746 ].
A short description of assay [2]: Luminescent dose response cell-based high throughput screening assay for inhibitors of the Janus kinase 2 mutant JAK2V617F. [Related pubchem assays: 1446 (Primary screen.), 1521 (Confirmation assay.), 1486 (Counter screen.)]. Type of assay: functional.
Assay [3] is described as follows: Luminescence Cell-Based Dose Confirmation HTS to Identify Activators of 5'UTR Stem-Loop Driven Alpha-Synuclein mRNA Translation in H4 Neuroglioblastoma Cells. [Related pubchem assays: 1829 (Project Summary), 1814 (Primary HTS)]. Format: functional.
Assay [4] in a line: Luminescence Cell-Based Dose Response HTS to Identify Activators of Luciferase Translation or Activity in H4 […] Cells. [Related pubchem assays: 1829 (Project Summary), 1814 (Primary HTS)]. Type of assay: functional.
For another assay, the system named is H4. Description: Luminescence Cell-Based Dose Response HTS to Identify Activators of 5'UTR Stem-Loop Driven Prion Protein mRNA Translation in H4 Neuroglioblastoma Cells. [Related pubchem assays: 1829 (Project Summary), 1814 (Primary HTS)]. Type of assay: functional. Particulars: Homo sapiens.
Assay [5] deals with Vero. In words: mammalian cell viability reduction – secondary assay, cytotoxicity control for West Nile virus antiviral project, dose response (AID 1650). Type of assay: functional. Particulars: Chlorocebus sabaeus.
The subject of assay [6] is Vero. Description: inhibition of WNV-induced cytopathic effect – cell-based, CPE readout (AID 1621). Type of assay: functional. Particulars: Chlorocebus sabaeus.
For assay [7], the target named is T1, Ubiquitin-conjugating enzyme E2 N (Homo sapiens, UniProt P61088).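 Note: Dose-response confirmation in a TR-FRET assay detecting UBC13-driven polyubiquitin chain formation, inhibition measured.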
T1 sequence (P61088 whole entry): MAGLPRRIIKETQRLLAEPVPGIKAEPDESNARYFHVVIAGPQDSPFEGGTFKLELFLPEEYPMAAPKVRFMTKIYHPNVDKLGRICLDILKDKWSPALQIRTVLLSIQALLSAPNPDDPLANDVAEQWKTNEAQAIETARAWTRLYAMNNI
Type of assay: functional.

Assay [8] addresses T2, Microphthalmia-associated transcription factor (Homo sapiens, UniProt O75030).
T2 sequence (O75030 whole entry): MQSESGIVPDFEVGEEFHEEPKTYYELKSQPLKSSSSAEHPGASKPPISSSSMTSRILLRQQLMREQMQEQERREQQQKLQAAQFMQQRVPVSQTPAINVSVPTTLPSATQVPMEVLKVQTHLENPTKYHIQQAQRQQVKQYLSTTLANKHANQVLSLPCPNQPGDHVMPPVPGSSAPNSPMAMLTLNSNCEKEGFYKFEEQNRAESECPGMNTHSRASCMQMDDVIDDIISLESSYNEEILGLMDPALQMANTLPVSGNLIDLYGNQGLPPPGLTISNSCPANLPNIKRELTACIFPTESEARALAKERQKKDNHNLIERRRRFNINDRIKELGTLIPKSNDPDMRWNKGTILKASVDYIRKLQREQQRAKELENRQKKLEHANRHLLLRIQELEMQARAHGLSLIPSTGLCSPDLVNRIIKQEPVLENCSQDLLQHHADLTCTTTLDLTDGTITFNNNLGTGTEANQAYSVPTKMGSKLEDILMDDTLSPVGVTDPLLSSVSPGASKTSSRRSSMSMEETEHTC
In words: reducers of TRPM1 reporter luminescence, concentration series – cell-based, SK-MEL-5, cherry-picked, set 3, MITF inhibitor project, dose response (AID 493073).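 Note: SK-MEL-5 melanoma cells with luciferase driven by the MITF target TRPM1 promoter.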 Format: functional.

A short description of assay [9]: viability inhibitors of stage V gametocytes – luminescence, dose response (AID 1117278).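 Note: gametocytes exposed to compound for 24 hours.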 Type of assay: functional, cell-based.
Assay [10] in a line: viability loss in human Jurkat cells – cell-based, luminescence, cytotoxicity control for P. falciparum gametocyte viability project, dose response (AID 1117277).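 Note: potency reflects loss of cellular ATP meaning fewer viable cells.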 Type of assay: functional.
The target in the next assay is Protein Tat (Human immunodeficiency virus type 1 group M subtype B (isolate HXB2)(HIV-1), UniProt P04608). Format: functional.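 Note: tat binding to TAR RNA read out by fluorescence polarization.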
Protein Tat, sequence (P04608 whole entry): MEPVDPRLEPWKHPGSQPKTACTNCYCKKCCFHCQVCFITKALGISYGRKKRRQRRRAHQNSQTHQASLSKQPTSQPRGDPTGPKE
For assay [11], the system named is BJ. Description: BJ-TERT fibroblast viability loss – cell-based, RAS-independent, luminescence, dose response (AID 1933). Format: functional, Homo sapiens. Particulars: Homo sapiens, BJ.
The subject of assay [12] is BJ. Description: cells. The following applies: Homo sapiens, BJ. Type of assay: functional, cell-based, Homo sapiens.
The next assay addresses Large T antigen (Simian virus 40, UniProt P03070). Type of assay: functional, Betapolyomavirus macacae.
For assay [13], the system named is BJ. In words: BJ-TERT-LT-ST fibroblast viability loss – cell-based, RAS-independent, luminescence, dose response (AID 1935).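 Note: BJ fibroblasts immortalized with TERT plus LT and ST oncogenes.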 The following applies: Homo sapiens, BJ. Type of assay: functional, Homo sapiens.
Assay [14] can be described thus: DRD fibroblast viability loss – cell-based, non-viral oncogenic, luminescence, dose response (AID 1934). Format: functional. Particulars: Homo sapiens.
For assay [15], the target named is Neurotensin receptor type 1 (Homo sapiens, UniProt P30989). Type of assay: functional.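 Note: Image-based confirmatory dose-response assay measuring agonist activity at NTR1; NTR1-expressing U2OS osteosarcoma cells imaged for beta-arrestin GFP spot formation; agonist potency where compounds increase beta-arrestin recruitment.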
Neurotensin receptor type 1, sequence (P30989 whole entry): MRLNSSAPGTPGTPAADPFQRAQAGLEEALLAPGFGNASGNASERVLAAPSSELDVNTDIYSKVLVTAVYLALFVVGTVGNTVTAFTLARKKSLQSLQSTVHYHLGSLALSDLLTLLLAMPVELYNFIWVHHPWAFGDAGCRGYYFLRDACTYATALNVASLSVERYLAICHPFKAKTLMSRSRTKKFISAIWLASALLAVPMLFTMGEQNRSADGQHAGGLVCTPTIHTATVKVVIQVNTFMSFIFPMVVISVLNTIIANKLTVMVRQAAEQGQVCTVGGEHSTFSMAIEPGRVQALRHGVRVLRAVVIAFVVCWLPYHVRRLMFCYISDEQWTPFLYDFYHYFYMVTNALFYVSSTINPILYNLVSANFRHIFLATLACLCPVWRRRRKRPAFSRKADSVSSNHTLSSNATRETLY
Assay [16] is described as follows: viability loss in THP-1 monocytes – THP-1 cells, cytotoxicity control for Vif-APOBEC3G degradation inhibitor project, dose response (AID 1117359). Format: functional. Particulars: THP-1.
The target of assay [17] is T3, RNA-binding protein pos-1 (Caenorhabditis elegans, UniProt G5EF15).
T3 sequence (G5EF15 whole entry): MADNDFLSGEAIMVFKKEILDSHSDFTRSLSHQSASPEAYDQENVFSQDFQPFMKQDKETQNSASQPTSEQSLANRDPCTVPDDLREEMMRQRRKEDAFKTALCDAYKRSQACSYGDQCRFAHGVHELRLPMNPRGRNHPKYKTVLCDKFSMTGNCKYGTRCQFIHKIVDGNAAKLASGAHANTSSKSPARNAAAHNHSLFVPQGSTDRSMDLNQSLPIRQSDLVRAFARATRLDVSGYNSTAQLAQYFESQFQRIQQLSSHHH
Description: disruptors of C. elegans POS-1 RNA interaction – biochemical, fluorescence polarization, dose response (AID 1964).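 Note: purified POS-1 fused to maltose binding protein made in E. coli; potency of compounds blocking POS-1 binding to fluorescent RNA.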

The target in assay [18] is T4, Zinc finger protein mex-5 (Caenorhabditis elegans, UniProt Q9XUB2).
T4 sequence (Q9XUB2 whole entry): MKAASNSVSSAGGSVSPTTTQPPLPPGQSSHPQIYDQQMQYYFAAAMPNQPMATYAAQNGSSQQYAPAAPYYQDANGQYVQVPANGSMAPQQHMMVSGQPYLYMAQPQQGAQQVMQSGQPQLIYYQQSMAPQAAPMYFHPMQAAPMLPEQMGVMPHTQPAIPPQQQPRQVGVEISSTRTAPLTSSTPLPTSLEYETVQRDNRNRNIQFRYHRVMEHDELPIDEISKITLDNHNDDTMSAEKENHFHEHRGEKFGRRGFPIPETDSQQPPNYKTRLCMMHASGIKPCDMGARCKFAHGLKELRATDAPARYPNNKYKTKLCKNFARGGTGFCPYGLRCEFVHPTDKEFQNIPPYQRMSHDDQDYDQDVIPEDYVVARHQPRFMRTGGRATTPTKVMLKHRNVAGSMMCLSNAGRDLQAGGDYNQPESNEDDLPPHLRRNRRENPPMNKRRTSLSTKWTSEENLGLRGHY
In words: potency of MEX-5 RNA-binding blockers – biochemical, C. elegans, fluorescence polarization, dose response (AID 1960).

The target of another assay is Genome polyprotein (dengue virus type 2, UniProt P29990). In words: flavivirus cap methylation enzyme inhibition – biochemical, confirmation dose response, primary screen (AID 588689). Type of assay: functional.
Genome polyprotein, sequence (P29990 2492-3391 limits assumed): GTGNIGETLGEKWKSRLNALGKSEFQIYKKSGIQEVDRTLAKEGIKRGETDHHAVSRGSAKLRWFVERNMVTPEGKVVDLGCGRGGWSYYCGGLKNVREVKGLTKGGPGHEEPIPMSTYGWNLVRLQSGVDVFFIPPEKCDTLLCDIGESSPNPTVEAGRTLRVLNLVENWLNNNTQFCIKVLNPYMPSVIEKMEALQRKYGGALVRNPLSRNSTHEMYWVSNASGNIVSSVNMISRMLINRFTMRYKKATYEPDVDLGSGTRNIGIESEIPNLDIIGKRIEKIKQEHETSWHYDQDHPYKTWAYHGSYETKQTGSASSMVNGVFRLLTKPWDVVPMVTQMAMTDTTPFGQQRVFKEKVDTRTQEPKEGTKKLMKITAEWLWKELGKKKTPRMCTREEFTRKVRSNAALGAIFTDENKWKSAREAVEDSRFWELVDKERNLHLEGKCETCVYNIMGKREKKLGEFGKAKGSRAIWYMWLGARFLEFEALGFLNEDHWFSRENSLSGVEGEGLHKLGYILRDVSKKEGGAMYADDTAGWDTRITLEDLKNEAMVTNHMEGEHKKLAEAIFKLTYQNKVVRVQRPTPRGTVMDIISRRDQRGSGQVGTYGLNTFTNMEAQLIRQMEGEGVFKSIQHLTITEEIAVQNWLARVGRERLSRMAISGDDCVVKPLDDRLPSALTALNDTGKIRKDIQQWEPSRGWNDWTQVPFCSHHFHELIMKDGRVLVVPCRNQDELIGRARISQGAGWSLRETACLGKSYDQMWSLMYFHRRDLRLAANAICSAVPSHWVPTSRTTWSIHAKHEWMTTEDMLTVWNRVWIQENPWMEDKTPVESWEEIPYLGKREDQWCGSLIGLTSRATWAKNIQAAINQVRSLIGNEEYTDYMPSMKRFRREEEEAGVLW

Calls of active or inactive are those of the source.

Large T antigen, sequence (P03070 whole entry): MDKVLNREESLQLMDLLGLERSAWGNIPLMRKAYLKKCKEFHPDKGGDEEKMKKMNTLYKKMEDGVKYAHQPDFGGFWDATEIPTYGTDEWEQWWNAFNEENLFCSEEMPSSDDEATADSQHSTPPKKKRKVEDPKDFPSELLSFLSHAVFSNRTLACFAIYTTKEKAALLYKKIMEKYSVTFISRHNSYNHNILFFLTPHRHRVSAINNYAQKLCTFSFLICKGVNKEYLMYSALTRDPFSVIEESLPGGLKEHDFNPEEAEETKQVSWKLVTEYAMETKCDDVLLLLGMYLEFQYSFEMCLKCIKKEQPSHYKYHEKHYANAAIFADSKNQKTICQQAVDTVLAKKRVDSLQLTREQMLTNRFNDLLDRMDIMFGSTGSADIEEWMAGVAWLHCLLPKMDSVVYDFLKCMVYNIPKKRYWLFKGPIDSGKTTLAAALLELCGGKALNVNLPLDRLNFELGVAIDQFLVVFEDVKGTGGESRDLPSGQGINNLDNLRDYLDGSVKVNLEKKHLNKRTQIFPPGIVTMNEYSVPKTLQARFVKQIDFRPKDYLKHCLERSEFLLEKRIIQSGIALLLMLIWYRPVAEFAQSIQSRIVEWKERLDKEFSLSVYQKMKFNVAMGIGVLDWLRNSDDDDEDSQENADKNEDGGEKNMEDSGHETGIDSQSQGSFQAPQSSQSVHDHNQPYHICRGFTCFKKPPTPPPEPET
Mitogen-activated protein kinase 10, sequence (P53779 whole entry): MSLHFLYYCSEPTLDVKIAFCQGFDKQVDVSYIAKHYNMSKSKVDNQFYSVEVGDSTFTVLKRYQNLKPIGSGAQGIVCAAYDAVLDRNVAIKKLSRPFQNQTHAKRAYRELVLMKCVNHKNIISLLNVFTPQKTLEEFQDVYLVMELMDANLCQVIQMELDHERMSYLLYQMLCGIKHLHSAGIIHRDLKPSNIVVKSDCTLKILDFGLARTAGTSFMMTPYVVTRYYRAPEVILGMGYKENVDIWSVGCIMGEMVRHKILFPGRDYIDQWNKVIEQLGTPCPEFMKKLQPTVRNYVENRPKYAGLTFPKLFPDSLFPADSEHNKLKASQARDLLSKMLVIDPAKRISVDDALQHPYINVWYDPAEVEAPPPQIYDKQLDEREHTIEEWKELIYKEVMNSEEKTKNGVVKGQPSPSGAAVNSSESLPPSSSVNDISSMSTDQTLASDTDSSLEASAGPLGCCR

With `O=C(Cn1cnc2ccccc2c1=O)Nc1ccc(-c2nnc3n2CCCCC3)cc1`, the concentration for half-maximal inhibition (IC50) in [1] was 29.5 µM (not active).
Take `CC(C)C1C(C#N)=C(N)Oc2[nH]nc(-c3ccc4ccccc4c3)c21` (centres undefined): the IC50 in assay [2] was 2.41 µM (active).
With `CCCCN(CC)CCCNC(=O)c1cc2c(=O)n(CC)c3ccccc3c2s1`, the values for the concentration giving a half-maximal response (EC50) (in [3]; in assay [4]; in the assay with H4) were 73.6 µM (active), 13.6 µM (active) and 11.7 µM (active), respectively. The CC50 in the assay on Vero [5] is 24.3 µM (active). Moreover, the IC50 with Vero [6] is 22.7 µM (active); in assay [7] it was > 20 µM (inactive). Also, the AC50 in assay [8] is 21.6 µM (active).
For `CC(=O)c1cccc(CN2CCN(C3CCCCC3)C(CCO)C2)c1` (centres undefined), the IC50 in assay [9] was > 109 µM (inactive); in assay [10], > 83.3 µM (inactive).
With `Cc1occc1-c1nnc(SCC(=O)N2CCN(c3ccccc3)CC2)n1C`, the half-maximal inhibitory concentration (IC50) at Protein Tat was > 100 µM (active).
On to `Cc1ccc(C)c(N2CCN(C(=O)Cc3ccc(-n4c(=O)[nH]c5ccsc5c4=O)cc3)CC2)c1`, for which the results for the IC50 in [9] and in [10] were > 109 µM (inactive) and > 83.2 µM (inactive), respectively.
As for `O=C1NC(=O)N(c2ccccc2)C(=O)/C1=C\C=C\c1ccccc1`, the EC50 in assay [3] is > 120 µM (not active); in assay [4], 8.73 µM (active); with BJ [11], 2.79 µM (inconclusive); in the assay with H4 it was > 120 µM (not active); with BJ [12], > 150 µM (inconclusive); in the assay with BJ [13] it was 4.12 µM (inconclusive). In addition, the half-maximal effective concentration (EC50) was 4.66 µM (inconclusive) in assay [14] and 15.1 µM (active) in [15]. On Large T antigen, the IC50 is 95.6 µM (active). Moreover, the CC50 in assay [16] is 13 µM (active).
As for `COc1cc(C(c2c(C(=O)O)[nH]c3ccccc23)c2c(C(=O)O)[nH]c3ccccc23)ccc1OCc1ccccc1`, the results for the EC50 in [17] and in assay [18] were 47.7 µM (active) and 24.5 µM (active), respectively. Also, on Genome polyprotein, the 50% inhibitory concentration (IC50) was 16 µM (active). Moreover, the AC50 in the assay “cells” was 7.4 µM (active).
Take `CCN1CCN(CCCNC(=O)C2CCCN(c3nc4c(C)cc(C)cc4s3)C2)CC1` (centres undefined): the IC50 in the assay with Vero [6] is 24.8 µM (active).

For the origin of these results see ChEMBL document CHEMBL1201862, “PubChem BioAssay data set” (2004).
